Experimental data as given in article PMC9668832, “Increased slow dynamics defines ligandability of BTB domains” (Nature Communications, 2022).

Biological target: T1, MIZ1^BTB (Homo sapiens, UniProt Q13105)
T1 construct: gene ZBTB17; BTB domain, residues 1-115; N-terminal Trx-His6 tag cleaved with PreScission; E. coli BL21(DE3); 13C,15N-labelled; homodimer in solution
T1 sequence (Q13105 1-115): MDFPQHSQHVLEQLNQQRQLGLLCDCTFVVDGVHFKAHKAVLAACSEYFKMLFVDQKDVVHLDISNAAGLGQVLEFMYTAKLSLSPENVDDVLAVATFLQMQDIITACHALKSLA
Test: 1H-15N HSQC NMR titration
Type: binding

Kd | Compound
68 ± 9 µM | Nc1ccc(-n2cnc(Cl)c2Cl)cc1 [2GG4]
425 ± 59 µM | OC1(c2ccc(Cl)c(C(F)(F)F)c2)CCNCC1 [4CC2]
870 ± 140 µM | Cc1nc2ccc(Cl)cc2nc1C [5DD7]
